Experimental data reported in ChEMBL document CHEMBL3576767, “Neo-clerodane diterpenoids from Scutellaria barbata with activity against Epstein-Barr virus lytic replication” (J Nat Prod, 2015).

Tests used:
Human gammaherpesvirus 4 [1] = assay: Antiviral activity against EBV infected in TPA and sodium butyrate-induced P3HR1 cells assessed as inhibition on EBV lytic replication at 20 uM incubated for 48 hrs by SYBR green dye based real-time PCR method; format: functional; conditions: human gammaherpesvirus 4, P3HR-1, 48 h
[2] = Cytotoxicity against human P3HR1 cells assessed as reduction in cell viability incubated for 48 hrs by trypan blue dye exclusion assay; format: cell-based, P3HR-1
Human gammaherpesvirus 4 [3] = assay: Antiviral activity against EBV infected in TPA and sodium butyrate-induced P3HR1 cells assessed as inhibition on EBV lytic replication incubated for 48 hrs by SYBR green dye based real-time PCR method; format: functional, organism-based; conditions: human gammaherpesvirus 4, P3HR-1, 48 h
[4] = Selectivity index, ratio of CC50 for human P3HR1 cells to EC50 for EBV infected in TPA and sodium butyrate-induced P3HR1 cells; set-up: species or system P3HR-1

SMILES | inhibition at 20 µM (Human gammaherpesvirus 4 [1]) [%] | CC50 at 48 h [2] [µM] | EC50 (Human gammaherpesvirus 4 [3]) [µM] | Ratio CC50/EC50 [4]
CC(=O)O[C@H]1[C@H](OC(=O)c2cccnc2)[C@@]2(C)C(C)=CCC[C@@H]2[C@@](C)(/C=C/C2=CC(=O)OC2)[C@@]1(C)O | < 50 | – | – | –
CC1=CCC[C@H]2[C@@]1(C)[C@@H](OC(=O)c1ccccc1)[C@H](OC(=O)C(C)C)[C@](C)(O)[C@]2(C)/C=C/C1=CC(=O)OC1 | > 50 | 49.7 | 9.2 | 5.4
CC(=O)OC(C(=O)O[C@H]1[C@H](OC(=O)c2ccccc2)[C@@]2(C)C(C)=CCC[C@@H]2[C@@](C)(/C=C/C2=CC(=O)OC2)[C@@]1(C)O)C(C)C (some centres not stated) | > 50 | 148 | 3.2 | 46.1
CC(=O)O[C@@H](CC1=CC(=O)OC1)[C@]1(C)[C@H]2CCC=C(C)[C@]2(C)[C@@H](OC(=O)c2ccccc2)[C@H](O)[C@]1(C)O | > 50 | 37.8 | 8.7 | 4.3
CC1=CCC[C@H]2[C@@]1(C)[C@@H](OC(=O)c1ccccc1)[C@H](O)[C@]1(C)O[C@]3(COC(=O)C3)C[C@H](OC(=O)c3ccccc3)[C@]21C | > 50 | 66.5 | 18.3 | 3.6
CC1=CCC[C@H]2[C@@]1(C)[C@@H](OC(=O)c1ccccc1)[C@H](O)[C@]1(C)O[C@]3(COC(=O)[C@@H]3O)C[C@H](OC(=O)c3ccccc3)[C@]21C | > 50 | 15.1 | 5.2 | 2.9
CC1=CCC[C@H]2[C@@]1(C)[C@@H](OC(=O)c1ccccc1)[C@H](OC(=O)c1cccnc1)[C@](C)(O)[C@]2(C)/C=C/C1=CC(=O)OC1 | > 50 | 1440 | 23.6 | 61.1
CC1=CCC[C@H]2[C@@]1(C)[C@@H](OC(=O)c1ccccc1)[C@H](OC(=O)c1ccccc1)[C@](C)(O)[C@]2(C)/C=C/C1=CC(=O)OC1 | > 50 | 30 | 14.3 | 2.1
CC(=O)OC(C(=O)O[C@H]1[C@H](OC(=O)c2cccnc2)[C@@]2(C)C(C)=CCC[C@@H]2[C@@](C)(/C=C/C2=CC(=O)OC2)[C@@]1(C)O)C(C)C (some centres not stated) | > 50 | 307 | 18.7 | 16.4
CC1=CCC[C@H]2[C@@]1(C)[C@@H](OC(=O)c1ccccc1)[C@H](O)[C@](C)(O)[C@]2(C)/C=C/C1=CC(=O)OC1 | > 50 | 68.3 | 9.1 | 7.5
CC(=O)O[C@H]1[C@H](OC(C)=O)[C@]2(C)O[C@]3(CC[C@]2(C)[C@H]2[C@H](OC(=O)c4ccccc4)CC=C(C)[C@]12C)COC(=O)C3 | > 50 | 738 | 12.9 | 57.2
CC(=O)O[C@H]1[C@H](OC(=O)c2cccnc2)[C@@]2(C)C(C)=CC[C@@H](OC(=O)c3cccnc3)[C@@H]2[C@@]2(C)CC[C@]3(COC(=O)C3)O[C@@]12C | > 50 | 1790 | 16.4 | 109.2
C=CC(C)(C)c1cc2cc3c(cc2oc1=O)O[C@H](C(C)(C)OC(C)=O)C3 | – | > 150 | 5.43 | >39.6
CC(=O)O[C@H]1[C@H](OC(=O)C(C)C)[C@](C)(O)[C@](C)(/C=C/C2=CC(=O)OC2)[C@H]2CCC=C(C)[C@]12C | < 50 | – | – | –
CC1=CCC[C@H]2[C@@]1(C)[C@@H](OC(=O)c1cccnc1)[C@H](OC(=O)C(C)C)[C@](C)(O)[C@]2(C)/C=C/C1=CC(=O)OC1 | < 50 | – | – | –
CC(=O)O[C@H]1[C@H](OC(=O)c2ccccc2)[C@](C)(O)[C@](C)(/C=C/C2=CC(=O)OC2)[C@H]2CCC=C(C)[C@]12C | < 50 | – | – | –
CC(=O)O[C@@H](CC1=CC(=O)OC1)[C@]1(C)[C@H]2CCC=C(C)[C@]2(C)[C@@H](OC(C)=O)[C@H](OC(=O)C(C)C)[C@]1(C)O | < 50 | – | – | –
CC(=O)O[C@@H](CC1=CC(=O)OC1)[C@]1(C)[C@H]2CCC=C(C)[C@]2(C)[C@@H](OC(=O)c2cccnc2)[C@H](OC(=O)C(C)C)[C@]1(C)O | < 50 | – | – | –
CC(=O)O[C@@H](CC1=CC(=O)OC1)[C@]1(C)[C@H]2CCC=C(C)[C@]2(C)[C@@H](OC(C)=O)[C@H](OC(C)=O)[C@]1(C)O | < 50 | – | – | –
CC(=O)O[C@@H](CC1=CC(=O)OC1)[C@]1(C)[C@H]2CCC=C(C)[C@]2(C)[C@@H](OC(=O)c2cccnc2)[C@H](OC(=O)c2cccnc2)[C@]1(C)O | < 50 | – | – | –
C=C1[C@@H](O)CC[C@H]2[C@@]1(C)[C@@H](OC(=O)c1ccccc1)[C@H](OC(=O)c1ccccc1)[C@](C)(O)[C@]2(C)/C=C/C1=CC(=O)OC1 | < 50 | – | – | –
CC(=O)O[C@H]1[C@H](OC(C)=O)[C@](C)(O)[C@](C)(/C=C/C2=CC(=O)OC2)[C@H]2CCC=C(C)[C@]12C | < 50 | – | – | –
CC1=CCC[C@H]2[C@@]1(C)[C@@H](OC(=O)c1cccnc1)[C@H](OC(=O)c1cccnc1)[C@](C)(O)[C@]2(C)/C=C/C1=CC(=O)OC1 | < 50 | – | – | –
CC(=O)O[C@H]1[C@H](OC(C)=O)[C@]2(C)O[C@]3(CC[C@]2(C)[C@H]2[C@H](OC(=O)c4cccnc4)CC=C(C)[C@]12C)COC(=O)C3 | < 50 | – | – | –
CC(=O)O[C@H]1[C@H](OC(=O)c2cccnc2)[C@@]2(C)C(C)=CCC[C@@H]2[C@@]2(C)[C@@H](OC(=O)c3cccnc3)C[C@@]3(COC(=O)C3)O[C@@]12C | < 50 | – | – | –
CC1=CCC[C@H]2[C@@]1(C)[C@@H](OC(=O)c1cccnc1)[C@H](OC(=O)c1cccnc1)[C@]1(C)O[C@]3(COC(=O)C3)C[C@H](OC(=O)c3cccnc3)[C@]21C | < 50 | – | – | –
CC(=O)O[C@@H](CC1=CC(=O)OC1)[C@]1(C)[C@H]2CCC=C(C)[C@]2(C)[C@@H](OC(=O)c2cccnc2)[C@H](OC(=O)c2ccccc2)[C@]1(C)O [BARBATELLARINES B] | < 50 | – | – | –
